Measured values published in ChEMBL document CHEMBL1201862, “PubChem BioAssay data set” (2004).
Each block holds one molecule with its values, some of them ahead of it. Active and inactive are the calls of the source.

What was measured:
H9c2 = experiment: cells; format: functional, cell-based; conditions: Rattus norvegicus, H9c2, Myocardium;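 note: confirmatory concentration-response retest of ultra-high-throughput screening hits for modulation of myocardial damage; cell death induced by hydrogen peroxide oxidative stress; compound pretreatment for 60 min then peroxide exposure for 2 h; potency is for protecting the cells against peroxide damage rather than for killing them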
[1] = Luminescence Cell-Based Dose Retest to Confirm Inhibitors of Cancer Stem Cells. [Related pubchem assays (depositor defined):AID2717, AID2721]; format: functional; conditions: Homo sapiens
Cytochrome P450 2D6 = Cytochrome P450 2D6 (Homo sapiens, UniProt P10635);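 note: CYP2D6 member of a cytochrome P450 panel assay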
Cytochrome P450 2C9 = Cytochrome P450 2C9 (Homo sapiens, UniProt P11712)
[2] = biological target: Luciferin 4-monooxygenase (Photinus pyralis, UniProt P08659); experiment: inhibition of purified Photinus pyralis luciferase – biochemical, luminescence, dose response (AID 1891)
BJ [3] = experiment: BJ-TERT fibroblast viability loss – cell-based, RAS-independent, luminescence, dose response (AID 1933); format: functional; conditions: Homo sapiens
BJ [4] = experiment: cells; format: functional, cell-based; conditions: Homo sapiens
[5] = Luminescence Cell-Based Dose Confirmation HTS to Identify Inhibitors of Platelet Dense Granule Release. [Related pubchem assays: 1663 (Primary HTS), 1678 (Summary of Project)]; format: functional
BJ [6] = experiment: BJ-TERT-LT-ST fibroblast viability loss – cell-based, RAS-independent, luminescence, dose response (AID 1935); format: functional; conditions: Homo sapiens;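 note: BJ fibroblasts immortalized with TERT plus LT and ST oncogenes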
[7] = DRD fibroblast viability loss – cell-based, non-viral oncogenic, luminescence, dose response (AID 1934); format: functional; conditions: Homo sapiens
HEK293 = experiment: EBV LMP1 TES2 canonical NF-kB signalling blockers – cell-based, HEK293, luciferase, cherry-pick, dose response (AID 588343); format: functional; conditions: Homo sapiens
Cytochrome P450 2C19 = Cytochrome P450 2C19 (Homo sapiens, UniProt P33261); experiment: Cytochrome panel assay with activity outcomes. Panel member name: p450-cyp2c19 Compounds with AC50 equal or less than 10 uM are considered active; format: functional
Cytochrome P450 1A2 = biological target: T1, Cytochrome P450 1A2 (Homo sapiens, UniProt P05177);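 note: PubChem cytochrome P450 panel assay, CYP1A2 panel member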
T1 sequence (P05177 whole entry): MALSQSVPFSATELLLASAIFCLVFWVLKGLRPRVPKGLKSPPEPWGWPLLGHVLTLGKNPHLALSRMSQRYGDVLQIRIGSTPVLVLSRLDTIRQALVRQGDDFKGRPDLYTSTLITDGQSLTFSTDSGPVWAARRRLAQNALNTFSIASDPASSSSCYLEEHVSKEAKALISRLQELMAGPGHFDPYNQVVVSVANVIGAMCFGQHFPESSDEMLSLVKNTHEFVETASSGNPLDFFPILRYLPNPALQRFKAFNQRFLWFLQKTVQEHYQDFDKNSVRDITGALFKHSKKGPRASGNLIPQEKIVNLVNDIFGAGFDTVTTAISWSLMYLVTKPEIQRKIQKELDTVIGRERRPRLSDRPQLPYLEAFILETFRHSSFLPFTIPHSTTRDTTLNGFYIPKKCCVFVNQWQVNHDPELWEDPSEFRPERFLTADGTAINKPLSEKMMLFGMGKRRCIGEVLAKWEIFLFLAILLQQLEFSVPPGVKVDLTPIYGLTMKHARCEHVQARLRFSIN

Cytochrome P450 3A4 = Cytochrome P450 3A4 (Homo sapiens, UniProt P08684);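 note: CYP3A4 tested as one member of a cytochrome P450 panel screen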
Sequence of Cytochrome P450 3A4 (P08684 whole entry): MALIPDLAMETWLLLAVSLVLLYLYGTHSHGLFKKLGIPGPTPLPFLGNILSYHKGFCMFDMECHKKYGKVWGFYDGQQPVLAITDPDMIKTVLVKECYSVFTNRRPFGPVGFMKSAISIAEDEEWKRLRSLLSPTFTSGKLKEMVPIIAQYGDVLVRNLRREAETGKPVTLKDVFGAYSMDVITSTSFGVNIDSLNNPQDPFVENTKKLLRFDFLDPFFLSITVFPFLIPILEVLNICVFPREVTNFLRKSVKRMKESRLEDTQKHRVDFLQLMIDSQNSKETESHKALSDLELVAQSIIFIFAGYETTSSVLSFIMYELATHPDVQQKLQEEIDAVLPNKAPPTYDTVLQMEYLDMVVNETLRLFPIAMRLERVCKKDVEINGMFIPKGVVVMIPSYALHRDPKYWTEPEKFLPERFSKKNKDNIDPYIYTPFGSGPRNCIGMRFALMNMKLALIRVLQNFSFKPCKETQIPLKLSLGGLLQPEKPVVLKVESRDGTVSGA

Sequence of Cytochrome P450 2C9 (P11712 whole entry): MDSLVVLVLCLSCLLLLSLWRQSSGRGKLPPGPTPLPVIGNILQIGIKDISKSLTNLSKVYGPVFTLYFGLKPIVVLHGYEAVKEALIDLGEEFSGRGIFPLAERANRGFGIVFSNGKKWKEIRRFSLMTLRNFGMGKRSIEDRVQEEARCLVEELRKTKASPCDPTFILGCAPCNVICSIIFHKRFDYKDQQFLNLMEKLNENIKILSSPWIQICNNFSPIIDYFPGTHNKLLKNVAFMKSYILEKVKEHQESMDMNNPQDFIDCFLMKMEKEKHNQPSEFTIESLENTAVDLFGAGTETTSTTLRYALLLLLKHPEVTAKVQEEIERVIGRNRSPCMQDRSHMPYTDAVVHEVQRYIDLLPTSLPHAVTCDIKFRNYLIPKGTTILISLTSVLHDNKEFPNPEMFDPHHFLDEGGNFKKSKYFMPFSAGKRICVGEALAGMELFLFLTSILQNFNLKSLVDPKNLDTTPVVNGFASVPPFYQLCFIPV
Sequence of Cytochrome P450 2C19 (P33261 whole entry): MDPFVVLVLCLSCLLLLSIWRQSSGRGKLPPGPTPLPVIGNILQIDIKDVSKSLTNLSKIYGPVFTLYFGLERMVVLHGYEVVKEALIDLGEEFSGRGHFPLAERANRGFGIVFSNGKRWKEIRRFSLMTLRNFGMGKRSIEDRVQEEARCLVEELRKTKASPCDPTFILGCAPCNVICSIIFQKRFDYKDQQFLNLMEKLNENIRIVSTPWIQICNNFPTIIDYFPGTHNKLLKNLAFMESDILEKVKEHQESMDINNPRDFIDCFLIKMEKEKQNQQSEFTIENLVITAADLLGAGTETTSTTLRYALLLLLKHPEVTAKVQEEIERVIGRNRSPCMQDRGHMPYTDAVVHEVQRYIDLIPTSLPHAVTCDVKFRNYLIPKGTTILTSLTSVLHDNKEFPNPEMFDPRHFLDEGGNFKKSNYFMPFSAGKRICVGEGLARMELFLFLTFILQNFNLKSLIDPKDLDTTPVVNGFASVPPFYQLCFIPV
Sequence of Cytochrome P450 2D6 (P10635 whole entry): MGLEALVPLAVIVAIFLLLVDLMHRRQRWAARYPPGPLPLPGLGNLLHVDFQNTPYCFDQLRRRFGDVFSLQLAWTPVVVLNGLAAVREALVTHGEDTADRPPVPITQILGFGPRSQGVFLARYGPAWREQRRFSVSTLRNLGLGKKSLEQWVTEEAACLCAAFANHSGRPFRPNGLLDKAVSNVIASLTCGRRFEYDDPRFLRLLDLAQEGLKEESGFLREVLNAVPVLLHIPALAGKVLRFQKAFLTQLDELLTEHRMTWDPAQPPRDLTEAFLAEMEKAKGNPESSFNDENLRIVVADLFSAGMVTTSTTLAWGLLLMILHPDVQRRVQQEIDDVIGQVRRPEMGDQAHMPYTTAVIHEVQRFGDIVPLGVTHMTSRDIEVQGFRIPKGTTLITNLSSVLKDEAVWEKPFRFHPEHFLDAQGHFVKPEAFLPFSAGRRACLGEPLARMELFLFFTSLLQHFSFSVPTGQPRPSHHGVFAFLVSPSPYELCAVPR
Sequence of Luciferin 4-monooxygenase (P08659 whole entry): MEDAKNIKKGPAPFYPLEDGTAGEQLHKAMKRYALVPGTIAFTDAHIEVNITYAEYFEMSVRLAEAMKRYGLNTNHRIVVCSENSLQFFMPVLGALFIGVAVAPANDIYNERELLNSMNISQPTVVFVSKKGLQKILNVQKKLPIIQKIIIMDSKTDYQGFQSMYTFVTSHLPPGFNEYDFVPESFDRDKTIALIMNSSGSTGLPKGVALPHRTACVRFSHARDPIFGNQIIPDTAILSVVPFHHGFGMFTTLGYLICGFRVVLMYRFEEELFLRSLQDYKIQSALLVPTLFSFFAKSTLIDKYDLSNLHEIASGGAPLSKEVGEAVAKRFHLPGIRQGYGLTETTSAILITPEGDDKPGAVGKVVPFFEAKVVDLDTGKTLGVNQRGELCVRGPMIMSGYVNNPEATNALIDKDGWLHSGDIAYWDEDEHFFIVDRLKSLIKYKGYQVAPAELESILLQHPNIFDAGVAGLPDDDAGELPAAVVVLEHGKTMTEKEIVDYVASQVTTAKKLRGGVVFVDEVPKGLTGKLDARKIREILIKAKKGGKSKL

Compound: Cc1cccc(NC(=O)c2[nH]cnc2C(=O)NCCCNC(=O)c2nc[nH]c2C(=O)Nc2cccc(C)c2)c1
IC50 (H9c2): 26.2 µM (active) | AC50 [1]: 10.6 µM (active)

Compound: O=C(Nc1ccc(N2CCOCC2)cc1)c1cn2ccccc2n1
EC50 [2]: 4.45 µM (active) | EC50 (BJ [3]): 12.3 µM (active) | EC50 (BJ [4]): 11.1 µM (active) | EC50 [5]: 3.25 µM (active) | EC50 (BJ [6]): > 150 µM (inconclusive) | EC50 [7]: 12.1 µM (active) | AC50 (HEK293): 3.09 µM (active)

Compound: O=C(CSC1=NNC(c2ccccn2)S1)Nc1cccc(Cl)c1 (stereo unspecified)
IC50 (H9c2): > 79 µM (inactive)

Compound: O=C1C2C3C=CC(CC3)C2C(=O)N1c1cccc(Br)c1 (stereo unspecified)
IC50 (H9c2): > 79 µM (inactive)

Continued, values first:

AC50 (Cytochrome P450 2D6): 14.1 µM (inconclusive) | AC50 (Cytochrome P450 2C9): inconclusive
Compound: Cn1c(SCC(=O)N2CCN(S(=O)(=O)c3ccccc3)CC2)nc2ccccc21

AC50 (Cytochrome P450 2C19): inconclusive | AC50 (Cytochrome P450 2C9): inconclusive | AC50 (Cytochrome P450 1A2): 31.6 µM (inconclusive)
Compound: O=C(Nc1ncc(Cc2cccc(Cl)c2)s1)C1=NCCN1

AC50 (Cytochrome P450 3A4): 31.6 µM (inconclusive) | AC50 (Cytochrome P450 2C9): inconclusive
Compound: CCN(CC)CCOC(=O)c1cc(Cl)c(N)cc1OC

AC50 (Cytochrome P450 2C19; read-out: AC50): 25.1 µM (inconclusive) | AC50 (Cytochrome P450 2C9): inconclusive | AC50 (Cytochrome P450 1A2): 12.6 µM (inconclusive)
Compound: C/C(CC(=O)NCc1ccco1)=N\NC(=O)Cc1cccc2ccccc12
